Experimental data reported in US4927826A, “Cycloproylpropenamides useful as platelet activing factor (PAF) antagonists” (Hoffman-La Roche Inc., priority 1988, dated 1990).

Key:
dog platelets = test: Binding assay: inhibition of 3H-PAF binding to dog platelets; conditions: 10 minutes at room temperature
Protocol: The binding assay was done in 400 μl polyethylene microcentrifuge tubes (Beckman) containing 50 μl of an oil mixture of 2 parts Siliconol AR200 (Serva): 1 part Silicone Fluid (Arthur H. Thomas). Buffer, standards, or analogs (150 μl total volume) were added to the tubes. Radiolabelled ^3 H-PAF (50 μl) was then added to the tubes. The reaction was started by the addition of 50 μl of dog platelets (2×10^7 platelets). The tubes were capped, inverted several times to mix, and incubated for 10 minutes at room temperature. The platelets were separated from the incubation mixture by centrifuging 1 minute in a Beckman Microfuge B centrifuge. The tip of the microfuge tube was cut off, and the platelets were washed out of the tip with 200 μl of 50% methanol (Burdick and Jackson). Aquasol (NEN, 10 ml) was added and the radioactivity in the samples was determined using an LS 8100 Beckman liquid scintillation counter linked to a Techtran tape recorder. Data was processed through an in-house computer system. Alternatively, radioactivity was determined using a Searle Mark III liquid scintillation counter linked to a Iso-Data microprocessor.
(b) Preparation of Platelets
Blood was collected from anesthesized or unanesthesized dogs into 50 ml plastic centrifuge tubes containing 3.8% sodium citrate as the anticoagulant (1 volume of citrate/9 volumes of blood). The red cells were removed by centrifugation for 15 minutes at 600 rpm (100-125 g) at room temperature. An aliquot of the supernatant platelet rich plasma (PRP) was saved for cell counting and the remainder was acidified by pH 6.5 with 0.15M citric acid. The platelet pellet was obtained after a 10 minute centrifugation at 2000 rpm (1000 g) at room temperature. Washed platelets were prepared by resuspending the platelet pellet once with PBS containing 1 mM EDTA, centrifuging as noted, and then resuspending the platelets in 0.1% BSA-PBS. An aliquot of the washed platelets was counted. Platelets used for binding assays were diluted to 2×10^7 platelets/assay tube (4×10^8 platelets/ml). Platelet counting was done using a Royco Cell-Crit 921.

[1] = tested on: PAF-induced Bronchoconstriction; test: PAF Induced Bronchoconstriction Assay; assay type: in vivo; conditions: guinea pig, ± standard error of the mean; for Percent Inhib. of PAF-induced Bronchoconstriction, 1 mg/Kg i.v.: 1 minute pretreatment, PAF 1.0 μg/kg i.v.; for Percent Inhib. of PAF-induced Bronchoconstriction, 50 mg/Kg p.o.: 2-hour pretreatment, PAF i.v.
Protocol: PAF Induced Bronchoconstriction Assay
Male animals (Hartlet Strain, 400-500 g) were anesthetized with urethane (2 g/kg, i.p.). Each animals' trachea was cannulated and the guinea pigs were respirated using a Harvard small animal rodent respirator (3.0 cc stroke volume, 40 breaths per min.). Tracheal pressure was recorded from a cannula inserted in the trachea and connected to a Statham Pressure Transducer.
The jugular vein was cannulated for administering compounds. Spontaneous breathing was arrested with succinylcholine (1.2 mg/kg, i.v.) administered 2 minutes prior to intravenous injection of platelet activating factor (PAF).
For, the intravenous testing, the guinea pig is given a 5-minute pretreatment with propranolol at a dose of 0.1 mg/kg intravenously. The test compound is administered with a 1 minute pretreatment prior to intravenous challenge with PAF. The animal is then challenged with a 1.0 μg/kg intravenous dose of PAF and the change is tracheal pressure is measured.
For the oral testing, the procedure includes a 2-hour pretreatment period with the test compound administered through an oral gavage tube. Propranolol or succinylcholine and PAF are administered intravenously, and the change in tracheal pressure measured.
The change is tracheal pressure is determined by subtracting the steady state baseline achieved after administration of succinylcholine from the peak bronchoconstriction seen after challenge with PAF. The mean is calculated for each test compound and compared to the mean of the control animals to give the percent inhibition of bronchoconstriction. The standard error is calculated as the standard error of the mean.

IC50 (dog platelets) [nM]	SMILES	Percent Inhib. of PAF-induced Bronchoconstriction, 1 mg/Kg i.v. [1] [%]	Percent Inhib. of PAF-induced Bronchoconstriction, 50 mg/Kg p.o. [1] [%]
200	O=C(/C=C/[C@H]1CC1(c1ccc(F)cc1)c1ccc(F)cc1)NCCCCc1cccnc1 [[R-(E)]-3-[2,2-bis(4-Fluorophenyl)cyclopropyl]-N-[4-(3-pyridinyl)butyl]-2-propenamide]	13 ± 11	83 ± 31
70	COc1cccc(C2(c3cccc(OC)c3)CC2/C=C/C(=O)NCCCCc2cccnc2)c1 (racemic) [[R,S-(E)]-3-[2,2-bis(3-Methoxyphenyl)cyclopropyl]-N-[4-(3-pyridinyl)butyl]-2-propenamide]	–	14 ± 1
650	O=C(/C=C\C1CC1(c1ccccc1)c1ccccc1)NCCCCc1cccnc1 (racemic) [[R,S-(Z)]-3-(2,2-Diphenylcyclopropyl)-N-[4-(3-pyridinyl)butyl]-2-propenamide]	–	–
350	O=C(/C=C/C1CC1(c1cccc(C(F)(F)F)c1)c1cccc(C(F)(F)F)c1)NCCCCc1cccnc1 (racemic) [[R,S-(E)]-3-[2,2-bis[3-(trifluoromethyl)phenyl]cyclopropyl]-N-[4-(3-pyridinyl)butyl]-2-propenamide]	–	–
200	O=C(CC[C@H]1CC1(c1ccccc1)c1ccccc1)NCCCCc1cccnc1 [(S)-2,2-Diphenyl-N-[4-(3-pyridinyl)butyl]cyclopropanepropanamide]	–	–
300	CC1(/C=C/C(=O)NCCCCc2cccnc2)CC1(c1ccc(F)cc1)c1ccc(F)cc1 (racemic) [[R,S-(E)]-3-[2,2-bis(4-Fluorophenyl)-1-methylcyclopropyl]-N-[4-(3-pyridinyl)butyl]-2-propenamide]	–	–
600	O=C(CC[C@@H]1CC1(c1ccccc1)c1ccccc1)NCCCCc1cccnc1 [(R)-2,2-Diphenyl-N-[4-(3-pyridinyl)butyl]cyclopropanepropanamide]	–	–
100	O=C(/C=C\[C@H]1CC1(c1ccccc1)c1ccccc1)NCCCCc1cccnc1 [[R-(Z)]-3-(2,2-Diphenylcyclopropyl)-N-[4-(3-pyridinyl)butyl]-2-propenamide]	–	–
200	C[C@@]1(/C=C/C(=O)NCCCCc2cccnc2)CC1(c1ccc(F)cc1)c1ccc(F)cc1 [[S-(E)]-3-[2,2-bis(4-Fluorophenyl)-1-methylcyclopropyl]-N-[4-(3-pyridinyl)butyl]-2-propenamide]	–	–
300	O=C(CCC1CC1(c1ccccc1)c1ccccc1)NCCCCc1cccnc1 (racemic) [(R,S)-2,2-Diphenyl-N-[4-(3-pyridinyl)butyl]cyclopropanepropanamide]	–	–
450	COc1cccc(C2(c3cccc(OC)c3)CC2/C=C/C(=O)NC(C)CCCc2cccnc2)c1 (stereo in doubt) [(S,R*)-(E)-3-[2,2-bis(3-Methoxyphenyl)cyclopropyl]-N-[1-methyl-4-(3-pyridinyl)butyl]-2-propenamide]	–	–
250	COc1cccc([C@@]2(c3ccccc3)C[C@@H]2/C=C\C(=O)NCCCCc2cccnc2)c1 (relative stereo) [[1(R,S),2(S,R)-(Z)]-3-[[2-(3-Methoxyphenyl)-2-phenyl]cyclopropyl]-N-[4-(3-pyridinyl)butyl]-2-propenamide]	–	15 ± 12
35	COc1cccc([C@@]2(c3ccccc3)C[C@@H]2/C=C/C(=O)NCCCCc2cccnc2)c1 (relative stereo) [[1(R,S),2(S,R)-(E)]-3-[[2-(3-Methoxyphenyl)-2-phenyl]cyclopropyl]-N-[4-(3-pyridinyl)butyl]-2-propenamide]	–	–
150	O=C(/C=C/C1CC1(c1ccccc1)c1ccccc1)NCCCCc1cccnc1 (racemic) [[R,S-(E)]-3-(2,2-Diphenylcyclopropyl)-N-[4-(3-pyridinyl)butyl]-2-propenamide]	48 ± 16	–
55	S=C(/C=C/C1CC1(c1ccccc1)c1ccccc1)NCCCCc1cccnc1 (racemic) [(R,S)-(E)-3-(Diphenylcyclopropyl)-N-[4-(3-pyridinyl)butyl]-2-propenethioamide]	–	–
250	O=C(/C=C/[C@H]1CC1(c1ccccc1)c1ccccc1)NCCCCc1cccnc1 [[R-(E)]-3-(2,2-Diphenylcyclopropyl)-N-[4-(3-pyridinyl)butyl]-2-propenamide]	71 ± 12	57 ± 19
25	O=C(/C=C/[C@@H]1CC1(c1ccc(F)cc1)c1ccc(F)cc1)NCCCCc1cccnc1 [[S-(E)]-3-[2,2-bis(4-Fluorophenyl)cyclopropyl]-N-[4-(3-pyridinyl)butyl]-2-propenamide]	33 ± 7	62 ± 13
36	COc1cccc(C2(c3cccc(OC)c3)C[C@H]2/C=C/C(=O)NCCCCc2cccnc2)c1 [[S-(E)]-3-[2,2-bis(3-Methoxyphenyl)cyclopropyl]-N-[4-(3-pyridinyl)butyl]-2-propenamide]	25 ± 8	–
300	COc1cccc(C2(c3cccc(OC)c3)C[C@@H]2/C=C/C(=O)NCCCCc2cccnc2)c1 [[R-(E)]-3-[2,2-bis(3-Methoxyphenyl)cyclopropyl]-N-[4-(3-pyridinyl)butyl]-2-propenamide]	8 ± 5	8 ± 2
100	O=C(/C=C/C1CC1(c1ccc(F)cc1)c1ccc(F)cc1)NCCCCc1cccnc1 (racemic) [[R,S-(E)]-3-[2,2-bis(4-Fluorophenyl)cyclopropyl]-N-[4-(3-pyridinyl)butyl]-2-propenamide]	20 ± 8	82 ± 5
500	C[C@]1(/C=C/C(=O)NCCCCc2cccnc2)CC1(c1ccc(F)cc1)c1ccc(F)cc1 [[R-(E)]-3-[2,2-bis(4-fluorophenyl)-1-methylcyclopropyl]-N-[4-(3-pyridinyl)butyl]-2-propenamide]	–	–
8	COc1cccc([C@]2(c3ccccc3)C[C@@H]2/C=C/C(=O)NCCCCc2cccnc2)c1 (relative stereo) [[1(R,S),2(R,S)-(E)]-3-[[2-(3-Methoxyphenyl)-2-phenyl]cyclopropyl]-N-[4-(3-pyridinyl)butyl]-2-propenamide]	–	–
200	O=C(/C=C/[C@H]1CC1(c1cccc(F)c1)c1cccc(F)c1)NCCCCc1cccnc1 [[R-(E)]-3-[2,2-bis(3-Fluorophenyl)cyclopropyl]-N-[4-(3-pyridinyl)butyl]-2-propenamide]	29 ± 3	10 ± 13
1000	O=C(/C=C\C1CC1(c1ccc(F)cc1)c1ccc(F)cc1)NCCCCc1cccnc1 (racemic) [[R,S-(Z)]-3-[2,2-bis(4-Fluorophenyl)cyclopropyl]-N-[4-[3-pyridinyl)butyl]-2-propenamide]	–	78 ± 11
450	C[C@H](CCCc1cccnc1)NC(=O)/C=C/[C@@H]1CC1(c1ccc(F)cc1)c1ccc(F)cc1 (relative stereo) [[S,R*-(E)]-3-[2,2-bis(4-Fluorophenyl)cyclopropyl]-N-[1-methyl-4-(3-pyridinyl)butyl]-2-propenamide]	–	–
130	C[C@H](CCCc1cccnc1)NC(=O)/C=C/[C@@H]1CC1(c1cccc(F)c1)c1cccc(F)c1 (relative stereo) [[S,R*-(E)]-3-[2,2-bis(3-Fluorophenyl)cyclopropyl]-N-[1-methyl-4-(3-pyridinyl)butyl]-2-propenamide]	–	–
1000	O=C(/C=C\[C@@H]1CC1(c1ccccc1)c1ccccc1)NCCCCc1cccnc1 [[S-(Z)]-3-(2,2-Diphenylcyclopropyl)-N-[4-(3-pyridinyl)butyl]-2-propenamide]	–	–
